Reference: patent US20120244553A1, “BIOMARKER OF ALLERGIC DISEASE AND USE OF THE SAME” (UNIVERSITY OF TOYAMA, priority 2007, published 2012)
Entries after “also recorded” stand apart in the source; their conditions may differ.

B1: granzyme A: serine protease expressed in CD4+ T cells; intradermally injected into mice to induce scratching (protein, listed as Homo sapiens)
chain: MRNSYRFLASSLSVVVSLLLIPEDVCEKIIGGNEVTPHSRPYMVLLSLDRKTICAGALIAKDWVLTAAHCNLNKRSQVILGAHSITREEPTKQIMLVKKEFPYPCYDPATREGDLKLLQLTEKAKINKYVTILHLPKKGDDVKPGTMCQVAGWGRTHNSASWSDTLREVNITIIDRKVCNDRNHYNFNPVIGMNMVCAGSLRGGRDSCNGDSGSPLLCEGVFRGVTSFGLENKCGDPRGPGVYILLSKKHLNWIIMTIKGAV

Key:
[1] = test system: mosquito salivary gland extract-induced scratching behavior; conditions: mouse; cited from earlier work
[2] = test system: primary afferent; conditions: sensitized mouse; cited from earlier work
[3] = test system: mice; conditions: animals such as mice; cited from earlier work
[4] = test system: granzyme A-induced scratching behavior; experiment: Suppression of scratching behavior induced by intradermal injection of granzyme A; assay type: in vivo, mouse; conditions: naltrexone injected 15 minutes before granzyme A
Experimental: (§1) On the day before the experiment, the hair on the rostral back of each mouse was removed. On the day of the experiment, the mouse was left in an observation cage for 1 hour to familiarize the mouse with the environment. After the familiarization, granzyme A (0.1 to 100 μg/site) or ESGM (10 μg/50 μL) was intradermally injected to the rostral back of the mouse. The mouse was returned to the observation cage (13×9×30 cm) immediately after the administration, and the behavior with no observer present was filmed with an 8-mm video camera. A protease inhibitor in an amount of 0.05 mL per 10 g of body weight of the mouse was injected into the tail vein 30 seconds before the administration of ESGM. Naltrexone in an amount of 0.1 mL per 10 g of body weight of the mouse was intradermally injected 15 minutes before the administration of granzyme A. The behavior after the injection was observed by playing back the video. Scratching behavior was determined by counting the number of times there was scratching of the injection portion and nearly areas with the hind paws. A mouse usually scratches several times for about 1 second, and a series of this behavior was determined as one instance of scratching behavior.

[5] = test system: normal mice; experiment: Behavior experiment: scratching behavior after intradermal injection of granzyme A; assay type: in vivo, mouse
Experimental: as §1

Molecule | Effect on scratching behavior increased by repetitive injections of mosquito salivary gland extract [1] | Effect on enhanced activity of primary afferent after mosquito salivary gland extract injection [2] | other results
CN1CCCC(n2nc(Cc3ccc(Cl)cc3)c3ccccc3c2=O)CC1 (centres unmarked) [azelastine] | is suppressed | suppressed | –
NCCc1c[nH]cn1 [histamine] | – | – | Scratching behavior caused by histamine [3]: does not cause scratching behavior
O=C1CC[C@@]2(O)[C@H]3Cc4ccc(O)c5c4[C@@]2(CCN3CC2CC2)[C@H]1O5 [naltrexone] | – | – | Effect on scratching behavior induced by intradermal injection of granzyme A [4]: suppressed
CC(C)(C)c1ccc(C(O)CCCN2CCC(C(O)(c3ccccc3)c3ccccc3)CC2)cc1 (centres unmarked) [terfenadine] | is not suppressed | not suppressed | –
B1 | – | – | Dose giving peak scratching behavior ([5]; intradermal injection): 10 μg/site; Scratching behavior induced by intradermal injection ([5]; intradermal injection to rostral back, 0.1 to 100 μg/site): an itching reaction occurred; also recorded: induced; also recorded: induction of scratching behavior
